Assay results from ChEMBL document CHEMBL1140532, “Omega-alkoxy analogues of SAHA (vorinostat) as inhibitors of HDAC: a study of chain-length and stereochemical dependence” (Bioorg Med Chem Lett, 2007).
pIC50: −log10 of the molar value.

Assays:
Histone deacetylase 2 = Histone deacetylase 2 (Homo sapiens, UniProt Q92769); assay: Inhibition of HDAC2 in HeLa cell lysates
NCI-H460 = assay: Growth inhibition of human H460 cells by SRB assay; format: functional, cell-based
NB-4 = assay: Growth inhibition of human NB4 cells by SRB assay; format: functional, cell-based
HCT-116 = assay: Growth inhibition of human HCT116 cells by SRB assay; format: functional, cell-based

Sequence of Histone deacetylase 2 (Q92769 whole entry): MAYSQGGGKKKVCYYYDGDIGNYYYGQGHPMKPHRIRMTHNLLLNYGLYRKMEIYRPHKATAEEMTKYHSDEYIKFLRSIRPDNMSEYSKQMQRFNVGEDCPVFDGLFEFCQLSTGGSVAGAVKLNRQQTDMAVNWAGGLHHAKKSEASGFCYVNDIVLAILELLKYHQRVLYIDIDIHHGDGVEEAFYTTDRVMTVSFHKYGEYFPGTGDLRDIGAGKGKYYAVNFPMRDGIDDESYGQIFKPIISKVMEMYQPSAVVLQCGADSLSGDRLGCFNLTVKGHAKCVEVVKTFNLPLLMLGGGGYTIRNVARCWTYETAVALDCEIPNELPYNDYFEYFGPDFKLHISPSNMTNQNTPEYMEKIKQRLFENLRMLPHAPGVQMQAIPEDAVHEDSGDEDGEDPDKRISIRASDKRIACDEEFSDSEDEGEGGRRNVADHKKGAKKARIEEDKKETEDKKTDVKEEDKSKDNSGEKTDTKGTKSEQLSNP

Compound	pIC50 (Histone deacetylase 2)	pIC50 (NCI-H460)	pIC50 (HCT-116)	pIC50 (NB-4)
COc1ccc(CO[C@H](CCCCCC(=O)NO)C(=O)Nc2ccccc2)cc1	≤ 7.30	6.30	6.41	7.15
COc1cccc(COC(CCCCCC(=O)NO)C(=O)N(Cc2cccc(OC)c2)c2ccccc2)c1 (stereo not given)	6.30	5.13	5.12	5.40
COc1ccc(COC(CCCCCC(=O)NO)C(=O)Nc2ccc(OC)cc2)cc1 (stereo not given)	6.30	6.52	6.47	6.82
O=C(CCCCCC(O)C(=O)Nc1ccccc1)NO (stereo not given)	6.30	6.34	5.96	6.47
COc1ccc(COC(CCCCCC(=O)NO)C(=O)Nc2ccccc2)cc1 (stereo not given)	≤ 7.30	6.28	6.66	6.92
COc1ccc(CO[C@@H](CCCCCC(=O)NO)C(=O)Nc2ccccc2)cc1	≤ 7.30	6.35	6.60	6.96
COC(CCCCC(=O)NO)C(=O)Nc1ccccc1 (stereo not given)	6.30	5.24	5.30	5.46
O=C(CCCCCC(Oc1cccc(Oc2ccccc2)c1)C(=O)Nc1ccccc1)NO (stereo not given)	–	6.17	6.17	6.64
C=CCOC(CCCCCC(=O)NO)C(=O)Nc1ccccc1 (stereo not given)	6.30	5.75	6.00	6.35
C=CCOC(CCCCCCC(=O)NO)C(=O)Nc1ccccc1 (stereo not given)	≤ 7.30	5.74	6.02	6.21

Further lines, with some results ahead:

pIC50 (Histone deacetylase 2)	pIC50 (NCI-H460)	pIC50 (HCT-116)	Compound	pIC50 (NB-4)
≤ 7.30	6.32	6.37	O=C(CCCCCC(OCc1ccc(C(F)(F)F)cc1)C(=O)Nc1ccccc1)NO (stereo not given)	6.77
≤ 7.30	6.23	6.57	Cc1ccc(COC(CCCCCC(=O)NO)C(=O)Nc2ccccc2)cc1 (stereo not given)	6.92
≤ 7.30	6.23	6.20	COc1cccc(COC(CCCCCC(=O)NO)C(=O)Nc2ccccc2)c1 (stereo not given)	6.80
≤ 7.30	6.35	6.52	COc1cc(COC(CCCCCC(=O)NO)C(=O)Nc2ccccc2)cc(OC)c1 (stereo not given)	7.30
6.30	6.00	6.30	COc1ccc(NC(=O)C(CCCCCC(=O)NO)OCc2ccccc2)cc1 (stereo not given)	6.60
6.30	5.92	6.06	COC(CCCCCC(=O)NO)C(=O)Nc1ccccc1 (stereo not given)	6.28
6.30	4.98	5.07	CCCOC(CCCCC(=O)NO)C(=O)Nc1ccccc1 (stereo not given)	5.39
≤ 7.30	6.31	6.55	O=C(CCCCCC(OCc1ccc(Br)cc1)C(=O)Nc1ccccc1)NO (stereo not given)	7.22
6.30	5.26	5.62	O=C(CCCCC(OCc1ccccc1)C(=O)Nc1ccccc1)NO (stereo not given)	< 5.30
